Measurements from patent EP1956033A1, “Acrylimides with initiator characteristics” (Mondi Release Liner Austria GmbH, priority 2007, dated 2008).

assay: Preliminary tests of the inventors on di(meth)acrylated carboxamides (reactivity / initiator properties); conditions: not given
From the text: Da sich in der Literatur keine Hinweise auf derartige Eigenschaften von Di(meth)-acrylamiden fanden, zielten Vorversuche der Erfinder auf Triacylamide ab, in denen zwei der Acylgruppen (Meth)acrylgruppen waren.

| Molecule | Reaktivität / Initiatoreigenschaften |
| --- | --- |
| Diacrylpropionamid | mäßig reaktive Monomere ohne Initiatoreigenschaften |

assay: Test for initiator properties: photopolymerisation of HDDA with the acrylimide added as initiator; conditions: double bond conversion from heat of polymerisation; approx. 6 mol-% imido groups in HDDA; 250-450 nm, 900 mW/cm^2
From the text: Dabei wurden die üblichen Polymerisationsparameter aufgezeichnet, und die Ergebnisse sind (als Mittelwerte von […]) in […] gibt die "Rate" die […]) des jeweiligen […] an. "DBC" ("double bond conversion"; in %) […] aus der Polymerisationswä[…] an polymerisierten Doppelbindungen, bezogen auf die […], und "tmax" ist die bis zum Erreichen des […]. bis zur […]) erforderliche Zeit (in s). Zusätzlich sind der Gehalt der jeweiligen Verbindung in HDDA in Gew.-% und in Mol-% sowie der Gehalt an Acrylimidogruppen in Mol-% angegeben. Tabelle 1

| Molecule | DBC |
| --- | --- |
| C=CC(=O)N(CC1CCCC(CN(C(=O)C=C)C(=O)C=C)C1)C(=O)C=C (stereo not drawn) [[18], N,N'-(1,3-Cyclohexylendimethylen)bisacrylimid] | 73,6% |
| C=CC(=O)N(CCN(CC)CC)C(=O)C=C [[15], N-(2-Diethylaminoethyl)acrylimid] | 80,2% |
| C=CC(=O)N(CCOCCOCCN(C(=O)C=C)C(=O)C=C)C(=O)C=C [[20], N,N'-(3,6-Dioxa-1,8-octylen)bisacrylimid] | 74,8% |
| C=CC(=O)N(CCCCCC)C(=O)C=C [[13], N-Hexylacrylimid] | 80,2% |
| C=CC(=O)N(CCCCCCN(C(=O)C=C)C(=O)C=C)C(=O)C=C [[16], N,N'-(1,6-Hexylen)bisacrylimid] | 75,7% |
| C=CC(=O)N(CC(CC)CCCC)C(=O)C=C (stereo not drawn) [[14], N-2-Ethylhexylacrylimid] | 80,9% |
| C=CC(=O)N(CCN(CCN(C(=O)C=C)C(=O)C=C)CCN(C(=O)C=C)C(=O)C=C)C(=O)C=C [[22], Tris(2-acrylimidoethyl)amin] | 72,4% |
| C=CC(=O)N(CCCCCCCCCCCCN(C(=O)C=C)C(=O)C=C)C(=O)C=C [[19], N,N'-(1,12-Dodecylen)bisacrylimid] | 76,8% |
| C=CC(=O)N(CCC[Si](C)(C)O[Si](C)(C)CCCN(C(=O)C=C)C(=O)C=C)C(=O)C=C [[21], N,N'-(4,6-Disila-5-oxa-4,4,6,6-tetramethyl-1,9-nonylen)bisacrylimid] | 78,2% |
| C=CC(=O)N(CCC)C(=O)C=C [[12], N-Propylacrylimid] | 82,6% |
| C=CC(=O)N(CCC(C)(C)CC(C)CN(C(=O)C=C)C(=O)C=C)C(=O)C=C (stereo not drawn) [[17], N,N'-(2,4,4-Trimethyl-1,6-hexylen)bisacrylimid] | 75,3% |

same assay, conditions: mean polymerisation rate of the mixture; approx. 6 mol-% imido groups in HDDA; 250-450 nm, 900 mW/cm^2; means of multiple determinations

| Molecule | Rate |
| --- | --- |
| C=CC(=O)N(CC1CCCC(CN(C(=O)C=C)C(=O)C=C)C1)C(=O)C=C (stereo not drawn) [[18], N,N'-(1,3-Cyclohexylendimethylen)bisacrylimid] | 19,1 10^3 mol/l.s. |
| C=CC(=O)N(CCN(CC)CC)C(=O)C=C [[15], N-(2-Diethylaminoethyl)acrylimid] | 27,7 10^3 mol/l.s. |
| C=CC(=O)N(CCOCCOCCN(C(=O)C=C)C(=O)C=C)C(=O)C=C [[20], N,N'-(3,6-Dioxa-1,8-octylen)bisacrylimid] | 21,2 10^3 mol/l.s. |
| C=CC(=O)N(CCCCCC)C(=O)C=C [[13], N-Hexylacrylimid] | 28,5 10^3 mol/l.s. |
| C=CC(=O)N(CCCCCCN(C(=O)C=C)C(=O)C=C)C(=O)C=C [[16], N,N'-(1,6-Hexylen)bisacrylimid] | 20,6 10^3 mol/l.s. |
| C=CC(=O)N(CC(CC)CCCC)C(=O)C=C (stereo not drawn) [[14], N-2-Ethylhexylacrylimid] | 28,3 10^3 mol/l.s. |
| C=CC(=O)N(CCN(CCN(C(=O)C=C)C(=O)C=C)CCN(C(=O)C=C)C(=O)C=C)C(=O)C=C [[22], Tris(2-acrylimidoethyl)amin] | 17,8 10^3 mol/l.s. |
| C=CC(=O)N(CCCCCCCCCCCCN(C(=O)C=C)C(=O)C=C)C(=O)C=C [[19], N,N'-(1,12-Dodecylen)bisacrylimid] | 20,9 10^3 mol/l.s. |
| C=CC(=O)N(CCC[Si](C)(C)O[Si](C)(C)CCCN(C(=O)C=C)C(=O)C=C)C(=O)C=C [[21], N,N'-(4,6-Disila-5-oxa-4,4,6,6-tetramethyl-1,9-nonylen)bisacrylimid] | 23,4 10^3 mol/l.s. |
| C=CC(=O)N(CCC)C(=O)C=C [[12], N-Propylacrylimid] | 29,8 10^3 mol/l.s. |
| C=CC(=O)N(CCC(C)(C)CC(C)CN(C(=O)C=C)C(=O)C=C)C(=O)C=C (stereo not drawn) [[17], N,N'-(2,4,4-Trimethyl-1,6-hexylen)bisacrylimid] | 20,2 10^3 mol/l.s. |

same assay, conditions: time to exotherm maximum (maximum polymerisation rate); approx. 6 mol-% imido groups in HDDA; 250-450 nm, 900 mW/cm^2

| Molecule | tmax |
| --- | --- |
| C=CC(=O)N(CC1CCCC(CN(C(=O)C=C)C(=O)C=C)C1)C(=O)C=C (stereo not drawn) [[18], N,N'-(1,3-Cyclohexylendimethylen)bisacrylimid] | 167,5 s |
| C=CC(=O)N(CCN(CC)CC)C(=O)C=C [[15], N-(2-Diethylaminoethyl)acrylimid] | 160,8 s |
| C=CC(=O)N(CCOCCOCCN(C(=O)C=C)C(=O)C=C)C(=O)C=C [[20], N,N'-(3,6-Dioxa-1,8-octylen)bisacrylimid] | 171,2 s |
| C=CC(=O)N(CCCCCC)C(=O)C=C [[13], N-Hexylacrylimid] | 159,9 s |
| C=CC(=O)N(CCCCCCN(C(=O)C=C)C(=O)C=C)C(=O)C=C [[16], N,N'-(1,6-Hexylen)bisacrylimid] | 162,4 s |
| C=CC(=O)N(CC(CC)CCCC)C(=O)C=C (stereo not drawn) [[14], N-2-Ethylhexylacrylimid] | 157,1 s |
| C=CC(=O)N(CCN(CCN(C(=O)C=C)C(=O)C=C)CCN(C(=O)C=C)C(=O)C=C)C(=O)C=C [[22], Tris(2-acrylimidoethyl)amin] | 182,2 s |
| C=CC(=O)N(CCCCCCCCCCCCN(C(=O)C=C)C(=O)C=C)C(=O)C=C [[19], N,N'-(1,12-Dodecylen)bisacrylimid] | 163,9 s |
| C=CC(=O)N(CCC[Si](C)(C)O[Si](C)(C)CCCN(C(=O)C=C)C(=O)C=C)C(=O)C=C [[21], N,N'-(4,6-Disila-5-oxa-4,4,6,6-tetramethyl-1,9-nonylen)bisacrylimid] | 153,0 s |
| C=CC(=O)N(CCC)C(=O)C=C [[12], N-Propylacrylimid] | 159,6 s |
| C=CC(=O)N(CCC(C)(C)CC(C)CN(C(=O)C=C)C(=O)C=C)C(=O)C=C (stereo not drawn) [[17], N,N'-(2,4,4-Trimethyl-1,6-hexylen)bisacrylimid] | 165,0 s |

assay: Test under self-initiation: irradiation and polymerisation in bulk without additional initiator; parameters: Rate: unit not given here; conditions: 100 wt-% compound, in bulk, no additional initiator

| Molecule | DBC | Rate | tmax |
| --- | --- | --- | --- |
| C=CC(=O)N(CCN(CC)CC)C(=O)C=C [[15], N-(2-Diethylaminoethyl)acrylimid] | 90,3% | 167,4 | 20,9 s |
| C=CC(=O)N(CCCCCC)C(=O)C=C [[13], N-Hexylacrylimid] | 92,7% | 170,0 | 21,3 s |
| C=CC(=O)N(CC(CC)CCCC)C(=O)C=C (stereo not drawn) [[14], N-2-Ethylhexylacrylimid] | 89,1% | 164,8 | 21,8 s |
| C=CC(=O)N(CCN(CCN(C(=O)C=C)C(=O)C=C)CCN(C(=O)C=C)C(=O)C=C)C(=O)C=C [[22], Tris(2-acrylimidoethyl)amin] | 73,5% | 38,1 | 16,8 s |
| C=CC(=O)N(CCC[Si](C)(C)O[Si](C)(C)CCCN(C(=O)C=C)C(=O)C=C)C(=O)C=C [[21], N,N'-(4,6-Disila-5-oxa-4,4,6,6-tetramethyl-1,9-nonylen)bisacrylimid] | 80,2% |  | 19,2 s |
| C=CC(=O)N(CCC)C(=O)C=C [[12], N-Propylacrylimid] | 95,2% | 196,3 | 20,4 s |
| C=CC(=O)N(CCC(C)(C)CC(C)CN(C(=O)C=C)C(=O)C=C)C(=O)C=C (stereo not drawn) [[17], N,N'-(2,4,4-Trimethyl-1,6-hexylen)bisacrylimid] | 78,9% | 42,6 | 19,5 s |

same assay, conditions: ratio of rate in bulk to rate of the same compound as initiator in HDDA

| Molecule | Polymerisationsraten in Substanz gegenüber Verwendung als Initiatoren für HDDA (Faktor) |
| --- | --- |
| C=CC(=O)N(CCN(CCN(C(=O)C=C)C(=O)C=C)CCN(C(=O)C=C)C(=O)C=C)C(=O)C=C [[22], Tris(2-acrylimidoethyl)amin] | ~2 |
| C=CC(=O)N(CCC[Si](C)(C)O[Si](C)(C)CCCN(C(=O)C=C)C(=O)C=C)C(=O)C=C [[21], N,N'-(4,6-Disila-5-oxa-4,4,6,6-tetramethyl-1,9-nonylen)bisacrylimid] | ~2 |
| C=CC(=O)N(CCC(C)(C)CC(C)CN(C(=O)C=C)C(=O)C=C)C(=O)C=C (stereo not drawn) [[17], N,N'-(2,4,4-Trimethyl-1,6-hexylen)bisacrylimid] | ~2 |
